Bounds are passed on as bounds.

Experimental findings from US20050197338A1, “Substituted pyrazole urea compounds for the treatment of inflammation” (priority 2003, published 2005) are described below.

The experiment concerns the target T1, human IKK-2 (rhIKK-2 homodimer) (Homo sapiens, UniProt O14920).
T1 construct: FLAG (DYKDDDDKD) (C); made in house; host or cells: insect cells (baculovirus, pFastBac)
T1 sequence (O14920 1-756): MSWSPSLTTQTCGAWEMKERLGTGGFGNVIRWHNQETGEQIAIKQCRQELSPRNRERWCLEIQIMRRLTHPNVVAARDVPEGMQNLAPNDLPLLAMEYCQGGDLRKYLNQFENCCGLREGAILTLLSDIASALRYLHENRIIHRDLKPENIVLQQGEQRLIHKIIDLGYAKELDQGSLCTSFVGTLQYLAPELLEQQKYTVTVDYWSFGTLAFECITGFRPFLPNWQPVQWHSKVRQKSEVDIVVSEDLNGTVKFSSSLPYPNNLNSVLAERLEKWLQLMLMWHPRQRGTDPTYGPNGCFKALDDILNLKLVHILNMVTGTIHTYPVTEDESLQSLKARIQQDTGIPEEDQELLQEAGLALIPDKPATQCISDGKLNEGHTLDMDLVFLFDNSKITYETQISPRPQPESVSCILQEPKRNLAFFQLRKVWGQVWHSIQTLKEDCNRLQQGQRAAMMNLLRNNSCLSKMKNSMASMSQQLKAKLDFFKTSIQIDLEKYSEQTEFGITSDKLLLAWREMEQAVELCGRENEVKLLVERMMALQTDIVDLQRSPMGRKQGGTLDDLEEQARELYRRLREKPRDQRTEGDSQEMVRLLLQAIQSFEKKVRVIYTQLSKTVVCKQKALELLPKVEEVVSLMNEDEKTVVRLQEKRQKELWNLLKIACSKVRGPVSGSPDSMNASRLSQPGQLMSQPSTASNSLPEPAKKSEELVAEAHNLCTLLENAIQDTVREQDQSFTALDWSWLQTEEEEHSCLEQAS
The experiment in a line: IKK-2 Resin Enzyme Assay (Human IKK-2 Enzyme Assay). In kind it is biochemical. As to conditions: human IKK-2, resin enzyme assay; read-out: IC50 (μM) hIKK-2. Summed up: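 C-terminally FLAG-tagged human IKK-2 homodimer, baculovirus-expressed in insect cells and anti-FLAG purified. Reaction mix: 5 μM biotinylated IκBα peptide (Ser32/Ser36 region), 1 μM ATP with [γ-33P]ATP, 2 mM MgCl2, 2 mM MnCl2, 10 mM NaF, 1 mM DTT, 25 mM HEPES pH 7.6. Incubated 30 min at 25 °C; IC50 derived.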
Broadly, the IC50 is the concentration that gives 50% inhibition. `N#CCOc1cccc(-c2ccc(-n3cc(NC(N)=O)c(C(N)=O)n3)cc2F)c1` [Example 227, 4-[(aminocarbonyl)amino]-1-[3′-(cyanomethoxy)-2-fluoro-1,1′-biphenyl-4-yl]-1H-pyrazole-3-carboxamide]: the IC50 was determined as 1.53 µM. Next, `Cc1cc(Sc2ccc(F)cc2)ccc1-n1cc(NC(N)=O)c(C(N)=O)n1` [Example 228, 4-[(aminocarbonyl)amino]-1-{4-[(4-fluorophenyl)thio]-2-methylphenyl}-1H-pyrazole-3-carboxamide]: more than 20 µM; `Cc1cc(S(=O)(=O)c2ccc(F)cc2)ccc1-n1cc(NC(N)=O)c(C(N)=O)n1` [Example 229, 4-[(aminocarbonyl)amino]-1-{4-[(4-fluorophenyl)sulfonyl]-2-methylphenyl}-1H-pyrazole-3-carboxamide]: 2.19 µM. Turning to `CCOc1cc(-n2cc(NC(N)=O)c(C(N)=O)n2)ccc1-c1cccc(O)c1` [Example 230, 4-[(aminocarbonyl)amino]-1-(2-ethoxy-3′-hydroxy-1,1′-biphenyl-4-yl)-1H-pyrazole-3-carboxamide], the IC50 was found to be 2.02 µM. With `CCOc1cc(-n2cc(NC(N)=O)c(C(N)=O)n2)ccc1-c1cccc(OCC#N)c1` [Example 231, 4-[(aminocarbonyl)amino]-1-[3′-(cyanomethoxy)-2-ethoxy-1,1′-biphenyl-4-yl]-1H-pyrazole-3-carboxamide], the 50% inhibitory concentration (IC50) was 4.88 µM. Next, `CCOc1cc(-n2cc(NC(N)=O)c(C(N)=O)n2)ccc1-c1ccccc1O` [Example 232, 4-[(aminocarbonyl)amino]-1-(2-ethoxy-2′-hydroxy-1,1′-biphenyl-4-yl)-1H-pyrazole-3-carboxamide]: 10.3 µM.

Turning to `NC(=O)Nc1cn(-c2ccc(-c3cccc(O)c3)c(C(F)(F)F)c2)nc1C(N)=O` [Example 233, 4-[(aminocarbonyl)amino]-1-[3′-hydroxy-2-(trifluoromethyl)-1,1′-biphenyl-4-yl]-1H-pyrazole-3-carboxamide], the IC50 came out at 0.375 µM. Turning to `NC(=O)Nc1cn(-c2ccc(-c3ccccc3O)c(C(F)(F)F)c2)nc1C(N)=O` [Example 234, 4-[(aminocarbonyl)amino]-1-[2′-hydroxy-2-(trifluoromethyl)-1,1′-biphenyl-4-yl]-1H-pyrazole-3-carboxamide], the IC50 came to 1.71 µM. Next, `Cc1cc(-c2ccccc2O)ccc1-n1cc(NC(N)=O)c(C(N)=O)n1` [Example 235, 4-[(aminocarbonyl)amino]-1-(2′-hydroxy-3-methyl-1,1′-biphenyl-4-yl)-1H-pyrazole-3-carboxamide]: 13.2 µM. On to `CCOc1cc(-n2cc(NC(N)=O)c(C(N)=O)n2)ccc1-c1ccccc1OCC#N` [Example 236, 4-[(aminocarbonyl)amino]-1-[2′-(cyanomethoxy)-2-ethoxy-1,1′-biphenyl-4-yl]-1H-pyrazole-3-carboxamide], for which the IC50 was 3.05 µM. Next, `N#CCOc1cccc(-c2ccc(-n3cc(NC(N)=O)c(C(N)=O)n3)cc2C(F)(F)F)c1` [Example 237, 4-[(aminocarbonyl)amino]-1-[3′-(cyanomethoxy)-2-(trifluoromethyl)-1,1′-biphenyl-4-yl]-1H-pyrazole-3-carboxamide]: 3.9 µM. As to `N#CCOc1ccccc1-c1ccc(-n2cc(NC(N)=O)c(C(N)=O)n2)cc1C(F)(F)F` [Example 238, 4-[(aminocarbonyl)amino]-1-[2′-(cyanomethoxy)-2-(trifluoromethyl)-1,1′-biphenyl-4-yl]-1H-pyrazole-3-carboxamide], the IC50 was determined as 1.11 µM.

Turning to `Cc1cc(-n2cc(NC(N)=O)c(C(N)=O)n2)ccc1-c1cccc(O)c1` [Example 239, 1-(3′-hydroxy-2-methyl-biphenyl-4-yl)-4-ureido-1H-pyrazole-3-carboxylic acid amide], the IC50 stood at 0.161 µM. Next, `Cc1cc(-n2cc(NC(N)=O)c(C(N)=O)n2)ccc1-c1ccccc1O` [Example 240, 1-(2′-Hydroxy-2-methyl-biphenyl-4-yl)-4-ureido-1H-pyrazole-3-carboxylic acid amide]: 2.02 µM; `Cc1cc(-n2cc(NC(N)=O)c(C(N)=O)n2)ccc1-c1ccc(F)cc1O` [Example 241, 1-(4′-Fluoro-2′-hydroxy-2-methyl-biphenyl-4-yl)-4-ureido-1H-pyrazole-3-carboxylic acid amide]: 1.68 µM; `Cc1cc(-n2cc(NC(N)=O)c(C(N)=O)n2)ccc1-c1cc(F)ccc1O` [Example 242, 1-(5′-Fluoro-2′-hydroxy-2-methyl-biphenyl-4-yl)-4-ureido-1H-pyrazole-3-carboxylic acid amide]: 1.35 µM. Next, `Cc1cc(-n2cc(NC(N)=O)c(C(N)=O)n2)ccc1-c1cccc(OCC#N)c1` [Example 243, 1-(3′-Cyanomethoxy-2-methyl-biphenyl-4-yl)-4-ureido-1H-pyrazole-3-carboxylic acid amide]: 8.11 µM; `Cc1cc(-n2cc(NC(N)=O)c(C(N)=O)n2)ccc1-c1ccc(F)cc1OCC#N` [Example 244, 1-(2′-Cyanomethoxy-4′-fluoro-2-methyl-biphenyl-4-yl)-4-ureido-1H-pyrazole-3-carboxylic acid amide]: 0.866 µM; `CNC(=O)Nc1cn(-c2ccc(I)c(C)c2)nc1C(N)=O` [Example 245, 1-(4-Iodo-3-methyl-phenyl)-4-(3-methyl-ureido)-1H-pyrazole-3-carboxylic acid amide]: 5.51 µM. To `NC(=O)Nc1cn(-c2cc(Cl)ccc2F)nc1C(N)=O` [Example 246, 1-(5-chloro-2-fluoro-phenyl)-4-ureido-1H-pyrazole-3-carboxylic acid amide] belongs 3.3 µM; to `NC(=O)Nc1cn(-c2ccc(-c3ccc(C(=O)O)c(F)c3)cc2F)nc1C(N)=O` [Example 248, 4′-{3-(aminocarbonyl)-4-[(aminocarbonyl)amino]-1H-pyrazol-1-yl}-3,3′-difluoro-1,1′-biphenyl-4-carboxylic acid], 0.386 µM.

`NC(=O)Nc1cn(-c2ccc(-c3ccccc3O)cc2F)nc1C(N)=O` [Example 249, 4-[(aminocarbonyl)amino]-1-(3-fluoro-2′-hydroxy-1,1′-biphenyl-4-yl)-1H-pyrazole-3-carboxamide]: the IC50 turned out to be 0.892 µM.

For the molecule `N#CCOc1ccccc1-c1ccc(-n2cc(NC(N)=O)c(C(N)=O)n2)c(F)c1` [Example 250, 4-[(aminocarbonyl)amino]-1-[2′-(cyanomethoxy)-3-fluoro-1,1′-biphenyl-4-yl]-1H-pyrazole-3-carboxamide], the IC50 amounted to 0.279 µM. `NC(=O)Nc1cn(-c2ccc(I)cc2Cl)nc1C(N)=O` [Example 251, 4-[(aminocarbonyl)amino]-1-(2-chloro-4-iodophenyl)-1H-pyrazole-3-carboxamide]: the IC50 amounted to 0.662 µM. Next, `NC(=O)COc1ccc(F)cc1-c1ccc(-n2cc(NC(N)=O)c(C(N)=O)n2)cc1` [Example 252, 4-[(aminocarbonyl)amino]-1-[2′-(2-amino-2-oxoethoxy)-5′-fluoro-1,1′-biphenyl-4-yl]-1H-pyrazole-3-carboxamide]: 0.492 µM. To `CC(=O)COc1cccc(-c2ccc(-n3cc(NC(N)=O)c(C(N)=O)n3)cc2)c1` [Example 253, 4-[(aminocarbonyl)amino]-1-[3′-(2-oxopropoxy)-1,1′-biphenyl-4-yl]-1H-pyrazole-3-carboxamide] belongs 1.01 µM.
